The values that follow come from patent US12509436B2, “Benzamide derivatives as cGAS-sting pathway agonists” (Baruch S. Blumberg Institute, priority 2018, dated 2025).

This test has as its system HepG2/STING/ISG54Luc reporter cells. Kind of test: ISG54 luciferase reporter assay. The test is classed as cell-based. Particulars: Homo sapiens, MinEC5X: minimum effective concentration to induce 5-fold luciferase activity vs mock-treated controls, 4 h post treatment, read-out: Concentration required for 5-fold of IFN-[…] induction. The procedure: Cell lines. Human hepatoblastoma cell line HepG2 was obtained from ATCC. Establishment of HepG2-derived cell line stably expressing human STING: HepG2 cells stably expressing wild-type human STING (HepG2/STING), were established by transduction of pCX4bsr retroviral vector (Addgene) containing the corresponding STING cDNA and selection with 10 μg/ml of blasticidin. The HepG2/STING cells were then transduced by pGreenFire ISRE lentivector system (System Biosciences) to generate a reporter cell line HepG2/STING/ISG54Luc that expresses firefly luciferase under the control of an ISG54 promoter. The pGreenFire ISRE reporter lentiviral vector contains four copies of consensus interferon stimulated response element (ISRE) sequences derived from ISG54 ISRE1, which control the expression of both green fluorescent protein (GFP) and firefly luciferase in response to IRF3 activation and IFN stimulation. HepG2/STING/ISG54Luc cells were maintained in Dulbecco's modified minimal essential medium (DMEM)/F12 (Invitrogen) supplemented with 10% fetal bovine serum, 100 U/ml penicillin and 100 μg/ml streptomycin, as well as 400 μg/ml of G418 and 2 μg/ml of puromycin.
ISG54 luciferase reporter assay: HepG2/STING/ISG54Luc reporter cells were seeded in black wall/clear bottom 96-well plates at a density of 4×10^4/well in […] of medium overnight. The test compounds were dissolved in DMSO with a stock concentration of 100 mM, and subjected to evaluation of dose-dependent effect on luciferase activity, starting from 100 μM in 2-fold dilution down to 0.78 μM. The experiments were performed in triplex wells.
The firefly luciferase activities were determined at 4 h post treatment with test compounds by using equal volume ([…]) of Steady-Glo to the culture medium (Promega), followed by luminometry in a TopCounter (Perkin Elmer).
Reporting the ISG54 promotor activation activity. The luciferase activities were converted to fold of induction relative to mock treated control. A dose-dependent curve of luciferase activities (fold of induction) for each test compound was generated using average value from the triplex wells. The activity of the test compounds was reported based on the Minimum Effective Concentration (MinEC5X) to induce 5-fold luciferase activity than that of the mock-treated controls.
In general terms: A reporter such as luciferase makes a cellular process visible.

Consider `O=C(Nc1cccc(Cl)c1Cl)c1cc2c(cc1Br)OCO2`, for which the EC (5-fold induction) is at most 50 µM.

On to `O=C(Nc1cccc2ccccc12)c1cc(F)ccc1Br`, for which the EC (5-fold induction) was at most 50 µM.

As to `O=C1CCN(C(=O)c2cc3c(cc2Br)OCO3)c2ccccc21`, the EC (5-fold induction) was at most 50 µM. For `O=C(Nc1cccc2ccccc12)c1cc2c(cc1Br)OCO2`, the EC (5-fold induction) was at most 50 µM.

As to `Cc1cc(Cl)ccc1C(=O)Nc1cccc2ccccc12`, the EC (5-fold induction) was at most 50 µM.

On to `O=C(Nc1cccc2c1CCC2)c1cc2c(cc1Br)OCO2`, for which the EC (5-fold induction) is at most 50 µM. For the compound `Cc1c(F)cccc1NC(=O)c1cc2c(cc1Br)OCO2`, the EC (5-fold induction) is at most 50 µM. `Cc1cccc(NC(=O)c2cc3c(cc2Br)OCO3)c1Br`: the EC (5-fold induction) was at most 50 µM. For `Cc1cccc(NC(=O)c2cc(F)c(F)cc2Br)c1C`, the EC (5-fold induction) fell in the range of 50 to 100 µM.

For the compound `O=C(Nc1cccc2ccccc12)c1ccc(Cl)cc1Cl`, the EC (5-fold induction) is at most 50 µM. Regarding `Cc1cccc(NC(=O)c2cc3c(cc2Br)OCO3)c1C`, the EC (5-fold induction) was at most 50 µM. With `O=C(Nc1cccc2ccccc12)c1cc(F)c(F)cc1Br`, the EC (5-fold induction) is at most 50 µM.

On to `O=C(Nc1cccc2c1CCCC2)c1cc(F)c(F)cc1Br`, for which the EC (5-fold induction) is at most 50 µM. Then `O=C(Nc1cccc2c1CCCC2)c1cc2c(cc1Br)OCO2`, with at most 50 µM; and `O=C(Nc1cccc2ccccc12)c1ccc(Cl)cc1Br`, with at most 50 µM; and `O=C(Nc1cccc2ccccc12)c1ccccc1Br`, with 50 to 100 µM. With `O=C(Nc1cccc2ccccc12)c1cccc(Cl)c1Cl`, the EC (5-fold induction) is at most 50 µM.

Consider `C=C(C)c1ccccc1NC(=O)c1cc2c(cc1Br)OCO2`, for which the EC (5-fold induction) is at most 50 µM.

With `Cc1cccc(C)c1NC(=O)c1cc2c(cc1Br)OCO2`, the EC (5-fold induction) was at most 50 µM. For the compound `Cc1c(Br)cccc1NC(=O)c1cc2c(cc1Br)OCO2`, the EC (5-fold induction) is at most 50 µM. Take `O=C(Nc1cccc2ccccc12)c1ccc(F)cc1Br`: the EC (5-fold induction) was at most 50 µM.

Regarding `Cn1nc(C(=O)Nc2cccc3ccccc23)c2ccccc21`, the EC (5-fold induction) was at most 50 µM.

Regarding `COc1ccc(C(=O)Nc2cccc3ccccc23)c(Br)c1`, the EC (5-fold induction) was at most 50 µM. Consider `O=C(Nc1cccc2c1CCC2)c1cc(F)c(F)cc1Br`, for which the EC (5-fold induction) is at most 50 µM.

Turning to `O=C(Nc1cccc2ccccc12)c1ccc(Br)cc1Cl`, the EC (5-fold induction) was at most 50 µM.

Turning to `O=C(Nc1cccc2ccccc12)c1ccc(Cl)cc1F`, the EC (5-fold induction) was at most 50 µM.

As to `O=C(Nc1cccc2ccccc12)c1nccnc1Cl`, the EC (5-fold induction) was at most 50 µM.
